Data on ten molecules can be found in US9346827B2, “5-amino-oxazepine and 5-amino-thiazepane compounds as beta secretase antagonists and methods of use” (Amgen Inc., priority 2011, dated 2016).

For test [1], the target named is BACE 1 (Homo sapiens (Human), UniProt P56817). As to the kind of experiment: In vitro enzymatic BACE FRET assay. It is filed as biochemical. Particulars: average IC50; enzyme 0.2 nM, FRET substrate 50 nM, pH 4.2. How it is done:
In Vitro Enzymatic BACE FRET (Fluorescence Resonance Energy Transfer) Assay
The assay buffer used in this screen is 0.05 M acetate, pH 4.2, 10% DMSO final, 100 uM genapol (which is a nonionic detergent, below its Critical Micelle Concentration). […] This assay is effectively started by the addition of FRET substrate (50 nM) and the combination is incubated for one hour. The FRET assay is terminated with by addition of Tris buffer, which raises the pH to neutrality, and the fluorescence is determined. The FRET substrate is a peptide with commercially available fluorophore and quencher, on opposite sides of the BACE cleavage site. Proteolytic cleavage of the FRET substrate releases quenching of fluorescence (excitation […] and […]).

Test [2] concerns Aβ40 in conditioned medium of cells expressing amyloid precursor protein. As to the kind of experiment: In vitro BACE cell-based assay (HEK cell assay, Aβ40 sandwich ELISA). The following applies: Homo sapiens, HEK293; average IC50; inhibition of Aβ40 after 24 h incubation. The protocol: In Vitro BACE Cell-Based Assay
The cell-based assay measures inhibition or reduction of Aβ40 in conditioned medium of test compound treated cells expressing amyloid precursor protein.
Cells stably expressing Amyloid Precursor Protein (APP) were plated at a density of 40K cells/well in 96 well plates (Costar). The cells were cultivated for 24 hours at 37° C. and 5% CO2 in DMEM supplemented with 10% FBS. The test compounds were then added to cells in 10-point dose response concentrations with the starting concentration being either 100 μM or 10 μM. The compounds were diluted from stock solutions in DMSO and the final DMSO concentration of the test compounds on cells was 0.1%. After 24 h of incubation with the test compounds the supernatant conditioned media was collected and the Aβ40 levels were determined using a sandwich ELISA. The IC50 of the compound was calculated from the percent of control or percent inhibition of Aβ40 as a function of the concentration of the test compound.
The sandwich ELISA to detect Aβ40 was performed in 96 well microtiter plates, which were pre-treated with goat anti-rabbit IgG (Pierce). The capture and detecting antibody pair that were used to detect Aβ40 from cell supernatants were affinity purified pAb40 (Biosource) and biotinylated 6E10 (Signet Labs Inc.), respectively. The optimal concentration for the pAb40 antibody was 3 μg/ml in Superblock/TBS (Pierce) that was supplemented with 0.05% Tween 20 (Sigma).
Cellular supernatants were incubated with the capture antibody for 3 h at 4° C., followed by 3 wash steps in TBS-tween (0.05%). The detecting antibody incubation was for 2 h at 4° C., again followed by the wash steps as described previously. The final readout of the ELISA is Time-Resolved Fluorescence (counts per minute) using Delfia reagents Streptavidin-Europium and Enhancement solutions (Perkin Elmer) and the Victor 2 multilabel counter (Perkin Elmer).

Chain of BACE 1 (P56817 46-501, species assumed): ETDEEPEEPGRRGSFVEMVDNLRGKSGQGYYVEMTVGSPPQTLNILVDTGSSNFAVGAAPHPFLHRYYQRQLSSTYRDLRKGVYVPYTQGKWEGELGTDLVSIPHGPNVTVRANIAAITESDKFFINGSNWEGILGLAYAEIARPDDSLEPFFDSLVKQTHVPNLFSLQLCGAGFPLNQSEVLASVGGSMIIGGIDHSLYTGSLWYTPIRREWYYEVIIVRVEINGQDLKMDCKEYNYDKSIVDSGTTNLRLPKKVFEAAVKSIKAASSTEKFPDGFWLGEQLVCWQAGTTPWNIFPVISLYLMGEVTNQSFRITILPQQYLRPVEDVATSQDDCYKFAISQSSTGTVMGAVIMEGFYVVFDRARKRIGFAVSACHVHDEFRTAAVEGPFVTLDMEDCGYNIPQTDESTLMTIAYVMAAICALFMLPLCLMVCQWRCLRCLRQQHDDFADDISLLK

On to `CC(C)(C)COc1cc(F)c2c(c1)[C@]1(COCCC(N)=N1)c1cc(-c3cccnc3F)ccc1O2` [Example 15, (3S)-2′-(2,2-dimethylpropoxy)-4′-fluoro-7′-(2-fluoro-3-pyridinyl)-6,7-dihydrospiro[1,4-oxazepine-3,9′-xanthen]-5-amine], for which the IC50 in test [1] amounted to 0.5 nM; in test [2], 7 nM.

For the molecule `NC1=N[C@]2(COCC1)c1cc(Br)ccc1Oc1cnc(Cl)cc12` [Example 3A, (5R)-7-bromo-3-chloro-6′,7′-dihydrospiro-[chromeno[2,3-c]pyridine-5,3′-[1,4]oxazepin]-5′-amine], the IC50 came out at 9230 nM in test [1] and 6370 nM in test [2].

`NC1=N[C@]2(COCC1)c1cc(-c3cccnc3F)ccc1Oc1cnc(-c3ccnc(F)c3)cc12` [Example 13, (5R)-7-(2-fluoro-3-pyridinyl)-3-(2-fluoro-4-pyridinyl)-6′,7′-dihydrospiro[chromeno-[2,3-c]-pyridine-5,3′-[1,4]oxazepin]-5′-amine]: the figures for the IC50 in test [1] and in test [2] were 139 nM and 78 nM, respectively.

Consider `NC1=N[C@@]2(CCOC1)c1cc(-c3cccnc3F)ccc1Oc1cnc(N3CCC(F)(F)C3)cc12` [Example 19, (S)-3-(3,3-difluoropyrrolidin-1-yl)-7-(2-fluoropyridin-3-yl)-6′,7′-dihydro-2′H-spiro[chromeno[2,3-c]pyridine-5,5′-[1,4]oxazepin]-3′-amine], for which the IC50 turned out to be 3 nM in test [1] and 4 nM in test [2].

`NC1=NC2(COCC1)c1cc(-c3cccnc3F)ccc1Oc1cnc(-c3ccnc(F)c3)cc12` (racemic) [Example 2, (5R/S)-7-(2-fluoro-3-pyridinyl)-3-(2-fluoro-4-pyridinyl)-6′,7′-dihydrospiro-[chromeno-[2,3-c]pyridine-5,3′-[1,4]oxazepin]-5′-amine]: the IC50 in test [1] was determined as 1 nM; in test [2], 3 nM.

In the case of `CC(C)(C)COc1cc(F)c2c(c1)[C@@]1(COCCC(N)=N1)c1cc(-c3cccnc3F)ccc1O2` [Example 16, (3R)-2′-(2,2-dimethylpropoxy)-4′-fluoro-7′-(2-fluoro-3-pyridinyl)-6,7-dihydrospiro[1,4-oxazepine-3,9′-xanthen]-5-amine], the IC50 was 285 nM in test [1] and 300 nM in test [2].

For the molecule `NC1=N[C@@]2(COCC1)c1cc(Br)ccc1Oc1cnc(Cl)cc12` [Example 3B, (5S)-7-bromo-3-chloro-6′,7′-dihydrospiro-[chromeno[2,3-c]-pyridine-5,3′-[1,4]oxazepin]-5′-amine], the figures for the IC50 in test [1] and in test [2] were 3830 nM and 892 nM, respectively.

In the case of `CC(C)(C)COc1cc(F)c2c(c1)C1(COCCC(N)=N1)c1cc(-c3cccnc3F)ccc1O2` (racemic) [Example 4, (3R/S)-2′-(2,2-dimethylpropoxy)-4′-fluoro-7′-(2-fluoro-3-pyridinyl)-6,7-dihydrospiro[1,4-oxazepine-3,9′-xanthen]-5-amine], the IC50 in test [1] was determined as 1 nM; in test [2], 12 nM.

On to `NC1=N[C@@]2(COCC1)c1cc(-c3cccnc3F)ccc1Oc1cnc(-c3ccnc(F)c3)cc12` [Example 14, (5S)-7-(2-fluoro-3-pyridinyl)-3-(2-fluoro-4-pyridinyl)-6′,7′-dihydrospiro[chromeno-[2,3-c]-pyridine-5,3′-[1,4]oxazepin]-5′-amine], for which the IC50 in test [1] came out at 0.5 nM; in test [2], 1 nM.

Take `NC1=N[C@]2(CCOC1)c1cc(-c3cccnc3F)ccc1Oc1cnc(-c3ccnc(F)c3)cc12` [Example 17, (5R)-7-(2-fluoro-3-pyridinyl)-3-(2-fluoro-4-pyridinyl)-6′,7′-dihydro-2′H-spiro[chromeno[2,3-c]pyridine-5,5′-[1,4]oxazepin]-3′-amine]: the values for the IC50 in test [1] and in test [2] were 369 nM and 689 nM, respectively.
